According to patent US20260168983A1, “YaxAB NANOPORE, NANOPORE SYSTEM COMPRISING SAME AND APPLICATIONS THEREOF” (KOREA RESEARCH INSTITUTE OF BIOSCIENCE AND BIOTECHNOLOGY, priority 2022, published 2026):
Entries after “also recorded” stand apart in the source; their conditions may differ.

How the values were obtained:
[1] = molecular target: BRD4-BD1 protein (Homo sapiens, UniProt O60885); conditions: 1 M LiCl, pH 7.5
[2] = molecular target: Bcl-xL protein (Homo sapiens, UniProt Q07817)
Bcl-xL protein, sequence (Q07817 with tags, fused parts or gaps DEL45-84): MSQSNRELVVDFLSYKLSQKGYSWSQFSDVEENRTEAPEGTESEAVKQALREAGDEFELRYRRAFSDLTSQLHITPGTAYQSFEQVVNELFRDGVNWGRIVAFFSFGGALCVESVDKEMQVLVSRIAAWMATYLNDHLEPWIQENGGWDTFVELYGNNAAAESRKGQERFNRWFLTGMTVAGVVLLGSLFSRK

Row | SMILES | nanopore current blockade signal of BRD4-BD1 with ligand [1] | current noise (IN) signal of Bcl-xL on individual treatment ([2]; FIG. 17A) | change in pattern of ionic current / current blockade of Bcl-xL on addition of ligand ([2]; ligand added individually to Bcl-xL in cis compartment)
1 | CCOc1cc(N2CCC(O)CC2)ccc1Nc1ncc2c(n1)N(C)c1ccccc1C(=O)N2C [XMD8-92] | characteristic nanopore current blockade patterns were observed |  | 
2 | CN(C)CC[C@H](CSc1ccccc1)Nc1ccc(S(=O)(=O)NC(=O)c2ccc(N3CCN(Cc4ccccc4-c4ccc(Cl)cc4)CC3)cc2)cc1[N+](=O)[O-] [ABT-737] |  | specifically increased | change in pattern; also recorded: the pattern of ionic current changed significantly
